From publication PMC11320581 (ACS Infectious Diseases, 2024)

Key:
[1] = molecular target: E. coli gyrase (Escherichia coli, UniProt P0AES4+P0AES6); format: biochemical
[2] = test system: B. anthracis gyrase; format: biochemical, Bacillus anthracis
[3] = test system: M. tuberculosis gyrase; details: cited from earlier work

Sequence of E. coli gyrase (P0AES4 whole entry, one chain of several): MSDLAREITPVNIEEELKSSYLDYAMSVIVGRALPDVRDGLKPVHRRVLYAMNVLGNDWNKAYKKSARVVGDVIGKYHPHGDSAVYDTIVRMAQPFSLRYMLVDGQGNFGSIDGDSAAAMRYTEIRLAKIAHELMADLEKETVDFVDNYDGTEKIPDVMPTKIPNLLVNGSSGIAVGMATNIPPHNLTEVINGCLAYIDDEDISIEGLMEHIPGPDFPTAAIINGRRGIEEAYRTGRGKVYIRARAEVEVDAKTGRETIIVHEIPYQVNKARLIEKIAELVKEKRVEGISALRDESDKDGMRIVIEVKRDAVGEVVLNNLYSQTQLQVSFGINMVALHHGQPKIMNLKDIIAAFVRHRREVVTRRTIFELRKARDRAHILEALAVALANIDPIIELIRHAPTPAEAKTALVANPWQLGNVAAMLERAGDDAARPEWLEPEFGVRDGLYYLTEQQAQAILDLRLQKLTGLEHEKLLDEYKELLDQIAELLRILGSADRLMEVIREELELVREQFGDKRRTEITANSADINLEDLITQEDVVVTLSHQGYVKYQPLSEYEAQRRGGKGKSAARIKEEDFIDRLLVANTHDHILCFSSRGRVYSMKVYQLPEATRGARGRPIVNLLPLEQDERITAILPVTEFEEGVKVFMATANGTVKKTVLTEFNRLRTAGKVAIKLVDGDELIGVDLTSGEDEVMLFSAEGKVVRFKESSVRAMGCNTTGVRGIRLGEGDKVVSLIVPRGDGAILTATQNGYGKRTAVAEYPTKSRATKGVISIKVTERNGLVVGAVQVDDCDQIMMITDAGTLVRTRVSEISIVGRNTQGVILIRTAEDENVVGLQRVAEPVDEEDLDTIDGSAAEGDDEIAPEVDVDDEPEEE

Compound | single-stranded compared with double-stranded DNA breaks with gyrase [1] | total DNA breaks with gyrase relative to topoisomerase IV [1] | single-stranded compared with double-stranded DNA breaks with gyrase [2] | total DNA breaks with gyrase relative to topoisomerase IV [2] | DNA cleavage mediated by M. tuberculosis gyrase compared with zoliflodacin [3] | double-stranded DNA breaks with gyrase relative to topoisomerase IV [1] [times] | double-stranded DNA breaks with gyrase relative to topoisomerase IV [2] [times]
CC1CN2c3c(cc4c(OCC5CCC(=O)N5)noc4c3F)CC3(C(=O)NC(=O)NC3=O)C2C(C)O1 (centres unmarked) [H3D-005722] | higher levels of single-stranded than double-stranded DNA breaks | higher levels of total DNA breaks mediated by gyrase over topoisomerase IV | higher levels of single-stranded than double-stranded DNA breaks | higher levels of total DNA breaks mediated by gyrase over topoisomerase IV | higher levels | – | –
C[C@@H]1CN2c3c(cc4c(N5C(=O)OC[C@@H]5C)noc4c3F)CC3(C(=O)NC(=O)NC3=O)[C@H]2[C@H](C)O1 [zoliflodacin, Zoliflodacin] | more gyrase-mediated single-stranded than double-stranded DNA breaks | 2.5 to 3 times | more gyrase-mediated single-stranded than double-stranded DNA breaks | 2.5 to 3 times | – | ~2 | ~2
